Test results: patent US7605272B2, “IGF-1R inhibitor” (Kyowa Hakko Kirin Co., Ltd., priority 2005, dated 2009)
Where a name gives a salt, the structure may show the parent alone. Read-outs that look alike come from different tables or passages of the source.

Experiments:
Colo205 = test: Cytostatic activity on human colon cancer cell line Colo205 (WST-1); format: cell-based; conditions: for inhibition at 10 µM: Homo sapiens, COLO 205, 72 h; for cytostatic rate (%) Colo205 (10 μmol/L): 72 hours
Protocol: (§1) The cytostatic rates of the test compound on the human pancreatic cancer cell line AsPC-1 and the human colon cancer cell line Colo205 were determined in the following manner.
(§2) For culturing AsPC-1, RPMI 1640 medium containing 20% fetal bovine serum, 1 mmol/L sodium pyruvate, 10 mmol/L HEPES, 4.5 g/L glucose and penicillin/streptomycin (1:1). The Colo205 cell was cultured using RPMI 1640 medium containing 10% fetal bovine serum, 1 mmol/L sodium pyruvate, 10 mmol/L HEPES, 4.5 g/L glucose and penicillin/streptomycin (1:1) was used. Each 80 μL of the AsPC-1 cell having a concentration of 5×10^4 cells/mL (or the Colo205 having a concentration of 5×10^4 cells/mL) was inoculated to wells of a TC MICROWELL 96F plate (Nalge Nunc International, Catalog No. 167008) and was cultured in a 5% carbon dioxide gas incubator at 37° C. for 24 hours. Each 20 μL of a solution of the test compound in DMSO which was prepared to make the final concentration to 1 μmol/L or 10 μmol/L, was added to each well. Each 20 μL of DMSO was added to the control well and the blank well to a final concentration of 0.1%. After adding the test compound, the cell was incubated in a 5% carbon dioxide gas incubator at 37° C. for 72 hours except for the blank well. After adding 20 μL of WST-1 reagent which was diluted to 50% by RPMI medium to each well, the cells were further incubated at 37° C. for 2 hours. Then, the absorbances at 450 nm (reference wavelength: 690 nm) were determined with a microplate spectrophotometer SPECTRA max 340PC. The cytostatic rate (%) was then determined in the similar manner to the above multiple myeloma cell lines.

AsPC-1 = test: Cytostatic activity on human pancreatic cancer cell line AsPC-1 (WST-1); format: cell-based; conditions: for inhibition at 10 µM: Homo sapiens, ASPC1, 72 h; for cytostatic rate (%) AsPC-1 (10 μmol/L): 72 hours
Protocol: as §1, §2

NCI-H929 = test: Cytostatic activity on human multiple myeloma cell line NCI-H929 (WST-1); format: cell-based; conditions: for inhibition at 1 µM / inhibition at 10 µM: Homo sapiens, NCI-H929, 72 h; for inhibition at 1 µM: read-out: cytostatic rate (%) H929 (1 μmol/L); for inhibition at 10 µM: 10 μmol/L, read-out: cytostatic rate (%) H929 (10 μmol/L)
How it was run: (§3)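 Cells pre-cultured 24 h at 37 °C, 5% CO2, then exposed 72 h to compound at final 1 or 10 μmol/L (0.1% DMSO). WST-1 added for 2 h, absorbance at 450 nm (ref 690 nm). Cytostatic rate = 100 minus relative growth, with DMSO control as 100% and blank as 0%.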

KMS-11 = test: Cytostatic activity on human multiple myeloma cell line KMS-11 (WST-1); format: cell-based; conditions: for inhibition at 1 µM / inhibition at 10 µM: Homo sapiens, KMS-11, 72 h; for inhibition at 1 µM: read-out: cytostatic rate (%) KMS-11 (1 μmol/L); for inhibition at 10 µM: 10 μmol/L, read-out: cytostatic rate (%) KMS-11 (10 μmol/L)
How it was run: as §3

IGF-1R = target: T1, IGF-1R (Homo sapiens, UniProt P08069); test: IGF-1R inhibitory activity (kinase reaction, time-resolved fluoroimmunoassay); format: biochemical; conditions: test compound 10 μmol/L
T1 construct: purchased Upstate Co. 14-465
How it was run: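 Compounds were tested at a single 10 μmol/L concentration. Each was incubated with recombinant IGF-1R (200 μg/L), 10 mmol/L ATP, MgCl2/MnCl2 and Na3VO4 (pH 7.5) on immobilized poly(Glu-Tyr) peptide for 30 min at 24° C. Eu-anti-phosphotyrosine time-resolved fluorescence (340/615 nm) gave relative activity against no-compound and no-enzyme wells, reported as % inhibition.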

[1] = 10 μmol/L, read-out: cytostatic rate (%) Colo205 (10 μmol/L)
[2] = 10 μmol/L, read-out: cytostatic rate (%) AsPC-1 (10 μmol/L)
[3] = IGF-1R active recombinant enzyme

T1 sequence (P08069 959-1367 limits assumed): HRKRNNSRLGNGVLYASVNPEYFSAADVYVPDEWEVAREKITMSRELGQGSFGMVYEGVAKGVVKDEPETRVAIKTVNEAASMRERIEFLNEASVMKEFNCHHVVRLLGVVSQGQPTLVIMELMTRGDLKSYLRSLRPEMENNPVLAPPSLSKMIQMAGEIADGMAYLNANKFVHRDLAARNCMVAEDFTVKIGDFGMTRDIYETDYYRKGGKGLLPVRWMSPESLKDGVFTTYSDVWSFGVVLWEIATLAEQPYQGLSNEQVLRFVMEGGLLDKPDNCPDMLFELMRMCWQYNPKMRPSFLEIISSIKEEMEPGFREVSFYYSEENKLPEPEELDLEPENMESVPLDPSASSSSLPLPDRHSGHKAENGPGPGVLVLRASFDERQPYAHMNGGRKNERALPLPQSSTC

| SMILES | inhibition at 10 µM (IGF-1R; [3]) | inhibition at 10 µM (Colo205; [1]) | inhibition at 10 µM (AsPC-1; [2]) | inhibition at 1 µM (NCI-H929; 1 μmol/L, 72 hours) | inhibition at 1 µM (KMS-11; 1 μmol/L, 72 hours) | inhibition at 10 µM (NCI-H929; 72 hours) | inhibition at 10 µM (KMS-11; 72 hours) | further results |
| --- | --- | --- | --- | --- | --- | --- | --- | --- |
| COCCN(CCN(C)C)C(=O)c1ccc(/C=C/c2n[nH]c3ccccc23)c(NC(=O)c2sccc2C)c1 [Compound 241, (E)-N-{5-[N-(2-dimethylaminoethyl)-N-(2-methoxyethyl)carbamoyl]-2-[2-(1H-indazol-3-yl)vinyl]phenyl}-3-methylthiophene-2-carboxamide hydrochloride] | 101% | 121% | 104% | 112% | 118% | – | – | – |
| Cc1ccsc1C(=O)Nc1cc(CN2CCN(CCO)CC2)ccc1/C=C/c1n[nH]c2ccccc12 [Compound 239, (E)-N-{5-[4-(2-hydroxyethyl)piperazin-1-ylmethyl]-2-[2-(1H-indazol-3-yl)vinyl]phenyl}-3-methylthiophene-2-carboxamide] | 101% | 121% | 102% | 115% | 152% | – | – | – |
| CCN(CC)CCOc1ccc(/C=C/c2n[nH]c3ccccc23)c(NC(=O)c2sccc2C)c1OC [Compound 263, (E)-N-{3-(2-diethylaminoethoxy)-6-[2-(1H-indazol-3-yl)vinyl]-2-methoxymephenyl}-3-methylthiophene-2-carboxamide] | – | – | – | – | – | – | – | cytostatic rate (%) Colo205 (10 μmol/L) (Colo205; 10 μmol/L): 120.5%; cytostatic rate (%) AsPC-1 (10 μmol/L) (AsPC-1; 10 μmol/L): 103.4%; cytostatic rate (%) H929 (1 μmol/L) (NCI-H929; 1 μmol/L, 72 hours): 116.0%; cytostatic rate (%) KMS-11 (1 μmol/L) (KMS-11; 1 μmol/L, 72 hours): 126.2%; inhibitory activity (%) at 10 μmol/L (IGF-1R; [3]): 100.9% |
| O=C(Nc1ccccc1/C=C/c1n[nH]c2ccccc12)c1ccccc1 [Compound 85, (E)-N-{2-[2-(1H-indazol-3-yl)vinyl]phenyl}benzamide] | – | 116% | 125% | – | – | 134% | 124% | inhibition at 10 µM (IGF-1R): 99.5% |
| CN(C(=O)c1ccc[nH]1)c1cc(C(=O)N2CCOCC2)ccc1/C=C/c1n[nH]c2ccccc12 [Compound 217, (E)-N-{2-[2-(1H-indazol-3-yl)vinyl]-5-(morpholin-4-ylcarbonyl)phenyl}-N-methylpyrrole-2-carboxamide hydrochloride] | 96.6% | 122% | 91.9% | 113% | 128% | – | – | – |
| Cc1ccsc1C(=O)Nc1cc(C(=O)N2CCOCC2)ccc1/C=C/c1n[nH]c2ccccc12 [Compound 100, (E)-N-{2-[2-(1H-indazol-3-yl)vinyl]-5-(morpholin-4-ylcarbonyl)phenyl}-3-methylthiophene-2-carboxamide] | – | 121% | 108% | – | – | 122% | 115% | inhibition at 10 µM (IGF-1R): 98.6% |
| Cc1ccsc1C(=O)Nc1cc(CN2CCN(CC(C)(C)O)CC2)ccc1/C=C/c1n[nH]c2ccccc12 [Compound 312, (E)-N-{5-[4-(2-hydroxy-2-methylpropyl)piperazin-1-ylmethyl]-2-[2-(1H-indazol-3-yl)vinyl]phenyl}-3-methylthiophene-2-carboxamide] | 105% | – | – | – | – | – | – | inhibition at 10 µM (Colo205; Colo205 cells, test compound 10 μmol/L, WST-1, read-out: cytostatic rate (%) Colo205 (10 μmol/L)): 120%; inhibition at 10 µM (AsPC-1; AsPC-1 cells, test compound 10 μmol/L, WST-1, read-out: cytostatic rate (%) AsPC-1 (10 μmol/L)): 101%; inhibition at 1 µM (NCI-H929; NCI-H929 cells, test compound 1 μmol/L, WST-1): 115%; inhibition at 1 µM (KMS-11; KMS-11 cells, test compound 1 μmol/L, WST-1): 108% |
| Cc1ccsc1C(=O)Nc1cc(CO)ccc1/C=C/c1n[nH]c2ccccc12 [Compound 108, (E)-N-{5-hydroxymethyl-2-[2-(1H-indazol-3-yl)vinyl]phenyl}-3-methylthiophene-2-carboxamide] | – | 121% | 87.9% | – | – | 123% | 110% | inhibition at 10 µM (IGF-1R): 95% |
| Cc1ccsc1C(=O)Nc1cc(CN2CCNCC2)ccc1/C=C/c1n[nH]c2ccccc12 [Compound 242] | – | – | – | – | – | – | – | cytostatic rate (%) Colo205 (10 μmol/L) (Colo205; 10 μmol/L): 119.7%; cytostatic rate (%) AsPC-1 (10 μmol/L) (AsPC-1; 10 μmol/L): 87.1%; cytostatic rate (%) H929 (1 μmol/L) (NCI-H929; 1 μmol/L, 72 hours): 111.1%; cytostatic rate (%) KMS-11 (1 μmol/L) (KMS-11; 1 μmol/L, 72 hours): 106.8%; inhibitory activity (%) at 10 μmol/L (IGF-1R; [3]): 102.1% |
| O=C(Nc1ccccc1/C=C/c1n[nH]c2ccccc12)c1cc2ccccc2s1 [Compound 46, (E)-N-{2-[2-(1H-indazol-3-yl)vinyl]phenyl}benzo[b]thiophene-2-carboxamide] | 97.8% | 112% | 120% | – | – | 118% | 115% | – |
| Cc1ccsc1C(=O)Nc1cc(C(=O)N2CCN(S(C)(=O)=O)CC2)ccc1/C=C/c1n[nH]c2ccccc12 [Compound 222, (E)-N-{2-[2-(1H-indazol-3-yl)vinyl]-5-(4-methanesulfonylpiperazin-1-ylcarbonyl)phenyl}-3-methylthiophene-2-carboxamide hydrochloride] | 98.7% | 123% | 114% | 118% | 108% | – | – | – |

Continued, in another order:

| inhibition at 10 µM (IGF-1R; [3]) | SMILES | inhibition at 10 µM (Colo205; [1]) | inhibition at 10 µM (AsPC-1; [2]) | inhibition at 1 µM (NCI-H929; 1 μmol/L, 72 hours) | inhibition at 1 µM (KMS-11; 1 μmol/L, 72 hours) | inhibition at 10 µM (NCI-H929; 72 hours) | inhibition at 10 µM (KMS-11; 72 hours) | further results |
| --- | --- | --- | --- | --- | --- | --- | --- | --- |
| 97.9% | Cn1cccc1C(=O)Nc1ccccc1/C=C/c1n[nH]c2ccccc12 [Compound 29, (E)-N-{2-[2-(1H-indazol-3-yl)vinyl]phenyl}-1-methyl-1H-pyrrole-2-carboxamide] | 114% | 66.1% | – | – | 117% | 112% | – |
| 97.9% | Nc1cccc2c1C(=O)N(c1cc(C(=O)N3CCOCC3)ccc1/C=C/c1n[nH]c3ccccc13)C2=O [Compound 288, (E)-4-amino-N-{2-[2-(1H-indazol-3-yl)vinyl]-5-(morpholin-4-ylcarbonyl)phenyl}isoindole-1,3-dione] | 120% | 94.5% | 118% | 109% | – | – | – |
| 102% | Nc1cccc2c1C(=O)N(c1ccccc1/C=C/c1n[nH]c3ccccc13)C2=O [Compound 194, (E)-4-amino-2-{2-[2-(1H-indazol-3-yl)vinyl]phenyl}isoindole-1,3-dione] | 97.9% | 75.3% | – | – | 119% | 143% | – |
| 99.5% | Nc1cccc2c1C(=O)N(c1cc3c(cc1/C=C/c1n[nH]c4ccccc14)OCO3)C2=O [Compound 152, (E)-4-amino-2-{6-[2-(1H-indazol-3-yl)vinyl]benzo[1,3]dioxol-5-yl}isoindole-1,3-dione] | 86.7% | 72.1% | – | – | 122% | 116% | – |
| 98.6% | Cc1ccsc1C(=O)Nc1ccccc1/C=C/c1n[nH]c2ccccc12 [Compound 41, (E)-N-{2-[2-(1H-indazol-3-yl)vinyl]phenyl}-3-methylthiophene-2-carboxamide] | 115% | 85.5% | – | – | 121% | 109% | – |
